Results on 11 molecules are retold here after ChEMBL document CHEMBL3351824, “Synthesis and biological evaluation of novel tacrine derivatives and tacrine-coumarin hybrids as cholinesterase inhibitors” (J Med Chem, 2014).

SMILES strings stand for the structures.

Test [1] deals with T1, Acetylcholinesterase (Homo sapiens, UniProt P22303).
Description: Inhibition of human recombinant AChE pre-incubated for 5 mins before acetylthiocholine substrate addition by Ellman's method
Another test deals with Cholinesterase (Homo sapiens, UniProt P06276).
The target of test [2] is T1, Acetylcholinesterase. The source holds these as a separate data set.
Description: Inhibition of human recombinant AChE assessed as dissociation constant for enzyme-inhibitor complex by Lineweaver-Burk plot
For test [3], the target named is T1, Acetylcholinesterase. The source holds these as a separate data set.
Description: Inhibition of human recombinant AChE assessed as dissociation constant for enzyme-inhibitor-substrate complex by Lineweaver-Burk plot

T1 sequence (P22303 whole entry): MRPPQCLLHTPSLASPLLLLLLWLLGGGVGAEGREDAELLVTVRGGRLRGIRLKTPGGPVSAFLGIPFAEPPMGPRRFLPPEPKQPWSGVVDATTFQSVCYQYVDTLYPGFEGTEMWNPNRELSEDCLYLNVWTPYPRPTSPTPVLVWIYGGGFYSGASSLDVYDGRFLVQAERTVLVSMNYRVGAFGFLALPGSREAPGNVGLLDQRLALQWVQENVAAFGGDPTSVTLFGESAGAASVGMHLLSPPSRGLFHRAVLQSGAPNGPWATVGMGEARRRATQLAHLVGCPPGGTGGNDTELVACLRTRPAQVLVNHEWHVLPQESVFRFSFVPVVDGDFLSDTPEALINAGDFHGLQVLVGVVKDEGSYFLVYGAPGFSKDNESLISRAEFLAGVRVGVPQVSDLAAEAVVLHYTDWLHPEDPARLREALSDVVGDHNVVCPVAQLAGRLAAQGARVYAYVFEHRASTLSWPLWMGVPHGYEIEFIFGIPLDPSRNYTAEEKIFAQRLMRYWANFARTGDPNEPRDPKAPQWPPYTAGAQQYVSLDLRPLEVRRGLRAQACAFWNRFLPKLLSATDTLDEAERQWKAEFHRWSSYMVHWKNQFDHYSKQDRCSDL
Cholinesterase, sequence (P06276 whole entry): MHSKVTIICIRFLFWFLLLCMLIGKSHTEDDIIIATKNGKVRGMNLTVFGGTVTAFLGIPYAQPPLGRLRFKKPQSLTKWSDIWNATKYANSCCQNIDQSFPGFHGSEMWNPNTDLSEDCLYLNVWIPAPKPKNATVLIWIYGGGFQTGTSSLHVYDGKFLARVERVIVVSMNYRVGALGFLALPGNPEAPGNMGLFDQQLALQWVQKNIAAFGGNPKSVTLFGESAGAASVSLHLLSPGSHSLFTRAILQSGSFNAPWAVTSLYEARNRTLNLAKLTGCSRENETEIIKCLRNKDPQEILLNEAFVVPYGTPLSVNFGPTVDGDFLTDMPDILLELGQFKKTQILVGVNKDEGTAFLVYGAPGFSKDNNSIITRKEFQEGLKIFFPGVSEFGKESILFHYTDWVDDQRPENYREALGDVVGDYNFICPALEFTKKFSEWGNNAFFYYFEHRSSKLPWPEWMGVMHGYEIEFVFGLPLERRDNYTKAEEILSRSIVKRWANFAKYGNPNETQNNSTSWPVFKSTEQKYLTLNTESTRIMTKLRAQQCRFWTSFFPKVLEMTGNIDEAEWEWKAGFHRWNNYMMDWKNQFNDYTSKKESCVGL

What is called IC50 is the concentration that gives 50% inhibition. A lower IC50 goes with greater potency. As for `CCN(CCC(=O)NCCNc1c2c(nc3ccccc13)CCCC2)C1CCCCC1`, the IC50 on Acetylcholinesterase [1] came to 233 nM; at Cholinesterase it was 765 nM.

A word on the Ki: it is the equilibrium dissociation constant of an inhibitor or competing ligand from its target. Low readings indicate a stronger hold on the target, high ones a looser hold on the target. Take `CCN(CCC(=O)NCCCNc1c2c(nc3ccccc13)CCCC2)C1CCCCC1`: the half-inhibitory concentration (IC50) came out at 26.3 nM against Acetylcholinesterase [1] and 267 nM against Cholinesterase. For the same molecule, the Ki on Acetylcholinesterase [2] was 80.4 nM; on Acetylcholinesterase [3], 78.9 nM.

In the case of `CCN(CCC(=O)NCCCCNc1c2c(nc3ccccc13)CCCC2)C1CCCCC1`, the IC50 against Acetylcholinesterase [1] was determined as 94.2 nM; against Cholinesterase it was 228 nM. The Ki at Acetylcholinesterase [2] was 199 nM; on Acetylcholinesterase [3], 328 nM.

For the molecule `CN(CCC(=O)NCCNc1c2c(nc3ccccc13)CCCC2)C1CCCCC1`, the IC50 worked out at 580 nM against Acetylcholinesterase [1] and 2030 nM against Cholinesterase.

As to `CN(CCC(=O)NCCCNc1c2c(nc3ccccc13)CCCC2)C1CCCCC1`, the IC50 against Acetylcholinesterase [1] was determined as 398 nM; on Cholinesterase it was 2380 nM.

In the case of `CN(CCC(=O)NCCCCNc1c2c(nc3ccccc13)CCCC2)C1CCCCC1`, the IC50 was 104 nM on Acetylcholinesterase [1] and 2230 nM at Cholinesterase.

On to `O=C(Cc1cc(=O)oc2cc(O)ccc12)NCCNc1c2c(nc3ccccc13)CCCC2`, for which the results for the IC50 against Acetylcholinesterase [1] and on Cholinesterase were 2910 nM and 12600 nM, respectively.

Consider `O=C(Cc1cc(=O)oc2cc(O)ccc12)NCCCNc1c2c(nc3ccccc13)CCCC2`, for which the figures for the IC50 against Acetylcholinesterase [1] and at Cholinesterase were 277 nM and 827 nM, respectively.

Turning to `O=C(Cc1cc(=O)oc2cc(O)ccc12)NCCCCNc1c2c(nc3ccccc13)CCCC2`, the IC50 on Acetylcholinesterase [1] worked out at 15.4 nM; against Cholinesterase, 328 nM. Further, the values for the Ki on Acetylcholinesterase [2] and at Acetylcholinesterase [3] were 4.1 nM and 23.4 nM, respectively.

Consider `O=C(Cc1cc(=O)oc2cc(O)ccc12)NNC(=S)Nc1c2c(nc3ccccc13)CCCC2`, for which the IC50 against Acetylcholinesterase [1] came to 8170 nM; against Cholinesterase, 1420 nM. Also, the Ki on Acetylcholinesterase [2] was 1940 nM; at Acetylcholinesterase [3], 92800 nM.

On to `O=C(Cc1cc(=O)oc2cc(O)ccc12)N/N=C1\SCC(=O)N1c1c2c(nc3ccccc13)CCCC2`, for which the values for the IC50 on Acetylcholinesterase [1] and against Cholinesterase were 15700 nM and 5620 nM, respectively. The Ki worked out at 2360 nM on Acetylcholinesterase [2] and 65300 nM at Acetylcholinesterase [3].
